From patent US20230285347A1, “Preterm Labour with Prostaglandin E2 Receptor Agonists” (IMPERIAL COLLEGE INNOVATIONS LIMITED, priority 2020, published 2023)

Columns and labels:
human FLAG-EP2 [1] = molecular target: T1, human FLAG-EP2 (Homo sapiens, UniProt P43116); assay: Intracellular Ca2+ release in HEK 293 cells stably expressing EP2 (Fluo-4, confocal; Gαq/11 readout); format: cell-based; conditions: HEK 293 EP2 cells; butaprost 10 μM, AH13205 10 μM, PGN9856i 100 nM; vs vehicle; FIG. 3
T1 construct: FLAG; expressed in transfected cells
T1 sequence (P43116 whole entry): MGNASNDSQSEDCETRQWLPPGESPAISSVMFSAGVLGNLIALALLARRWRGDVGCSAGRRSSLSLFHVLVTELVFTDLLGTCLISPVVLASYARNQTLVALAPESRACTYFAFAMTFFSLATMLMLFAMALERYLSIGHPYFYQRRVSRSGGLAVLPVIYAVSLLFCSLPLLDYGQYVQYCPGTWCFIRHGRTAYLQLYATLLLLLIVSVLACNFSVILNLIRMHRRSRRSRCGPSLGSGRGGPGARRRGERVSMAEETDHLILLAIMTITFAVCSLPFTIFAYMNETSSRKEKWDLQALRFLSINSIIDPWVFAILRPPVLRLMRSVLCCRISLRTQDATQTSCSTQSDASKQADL
Description: To measure Gαq/11 activation, HEK 293 cells stably expressing human FLAG-EP2 were pre-labelled with a Ca2+ indicator dye and acutely stimulated with each ligand.
HEK 293 cells, prepared following the same methodology as outlined in Example 1, were seeded onto Mattek dishes with 14 mm by 1.5 mm glass coverslips. Cells were incubated with Fluo-4am Ca2+ indicator (ThermoFisher) as per manufacturer's instructions. […]. Time-series images were acquired using a Leica SP5 confocal microscope, Leica LAS AF image acquisition software and a 488 nm excitation laser. HEK cells were imaged using a 10× dry objective. EP2 agonists (butaprost 10 μM, AH13205 10 μM or PGN9856i 100 nM) were added following measurement of basal fluorescence. Raw files were analysed using Fiji Time series analyser plugin to find the maximal fluorescent intensity, which was then averaged across cells in each condition.
The maximal fluorescence intensity was measured by live confocal microscopy.

EP2 [2] = molecular target: T2, EP2 (Homo sapiens, UniProt P43116); assay: Intracellular cAMP in primary human myocytes from term pregnant non-labouring myometrium; format: cell-based; conditions: butaprost 10 μM, AH13205 10 μM, PGN9856i 100 nM, FIG. 5
T2 construct: primary human myocytes cultured from term pregnant, non-labouring, myometrium; endogenous in cells; host or cells: primary human myometrial cells (myocytes) cultured from pregnant myometrium
T2 sequence (P43116 whole entry): as above
Description: In the myometrium EP2 is an important regulator of parturition. To assess if PGN9856i, butaprost and AH13205 induce similar second messenger profiles in the myometrium as HEK 293 cells, primary human myocytes cultured from term pregnant, non-labouring, myometrium, were treated with each ligand and intracellular cAMP, calcium and PGE2 release was measured.
Myometrial tissue was acquired at St. Mary's hospital, Queen Charlotte and Chelsea hospital and Charing Cross hospital, London. Tissue was obtained from women provided with informed written consent with the approval from the Riverside Research Ethics Committee (RREC 3357, 1997-5089, 19/LO/1657) and experiments were carried out under the committee's guidelines and recommendations. Tissues were obtained from term (38+0-40 weeks gestation) pregnant women undergoing elective caesarean from the upper margin of the incision made at the lower segment of the uterus, before or after the onset of labor. Tissues taken from women in early labour (<3 cm cervical dilation) or late labour (>3 cm cervical dilation) with/without induction with syntocinon, an oxytocin analogue. Tissue was only taken from uncomplicated, singleton pregnancies.
Tissue was stored at 4° C. in phosphate buffered saline until fine dissection with scalpels and dissociation at 37° C. for 1 hour in a sterile-filtered mix of Dulbecco's modified Eagle's medium (DMEM) (Sigma Aldrich)/Ham's F-12 Nutrient Mixture (Sigma Aldrich) and serum-free DMEM (Sigma Aldrich) (1:1 v/v) containing collagenase 1A (Sigma Aldrich)(1 mg/ml), collagenase X (Sigma Aldrich)(1 mg/ml) and bovine serum albumin (Sigma Aldrich) (2 mg/ml). […]
Confluent myometrial cells were treated with/without OT (100 nM) for 1 hour before 3 PBS washes and the addition of […] IBMX (3-isobutyl-1-methylxanthine) in PBS for 5 minutes at 37° C. […] Lysates were normalized to protein concentration determined by Coomassie (Bradford) Protein Assay Kit and analysed as per manufacturers' protocol (Cisbio Gαs dynamic assay) using a PHERAstar FSX.

EP2 [3] = molecular target: T2, EP2; assay: Intracellular calcium in myometrial cells with/without oxytocin pre-treatment; format: cell-based; conditions: OT pre-treatment 1 hour, 100 nM; butaprost 10 μM, AH13205 10 μM, PGN9856i 100 nM; FIG. 11
Description: Intracellular calcium response in myometrial cells with/without OT pre-treatment (1 hour, 100 nM) stimulated with butaprost (10 μM), AH13205 (10 μM) or PGN9856i (100 nM). Data are the mean of the maximum fluorescence intensity for each cell measured normalised to background (F-FO). Shown as fold-change over butaprost response. One-way ANOVA with Dunnett's multiple comparison post-hoc test: ##p<0.01. One-sample t-test: *p<0.05.

human FLAG-EP2 [4] = molecular target: T1, human FLAG-EP2; assay: PGE2 release by ELISA in HEK 293 cells stably expressing EP2; format: cell-based; conditions: HEK 293 EP2 cells; 6 hours; butaprost 10 μM, AH13205 10 μM, PGN9856i 100 nM; FIG. 4
Description: COX-2 is an inflammatory mediator that drives PGE2 production. The inventors had previously shown EP2-dependent COX-2 release to be downstream of Ca2+ release in primary human myometrium and that 6-hour agonist treatment is necessary for increasing COX-2 levels and PGE2 secretion (Kandola et al, 2014). HEK 293 cells stably expressing human FLAG-EP2 were stimulated for 6 hours with an EP2 agonist (butaprost 10 μM, AH13205 10 μM or PGN9856i 100 nM) or DMSO. 1 mL media was collected from COX-2 experiments and immediately frozen at −80 degrees Celsius. […]

EP2 [5] = molecular target: T2, EP2; assay: cAMP in non-labouring myometrial cells with/without oxytocin pre-treatment; format: cell-based; conditions: OT pre-treatment 1 hour, 100 nM; butaprost 10 μM, AH13205 10 μM, PGN9856i 100 nM; FIG. 10
Description: Myometrial cells with/without oxytocin (OT) pre-treatment (1 hour, 100 nM) were treated with IBMX (5 minutes, 0.5 mM) before 1 minute stimulation with IBMX with/without either DMSO, butaprost (10 μM), AH13205 (10 μM) or PGN9856i (100 nM). cAMP concentrations were normalised to protein. Each patient's data normalised to butaprost response and shown as mean±SEM, n=6. One-sample t-test: #p<0.05. ##p<0.01. One-way ANOVA with Sidak's multiple comparison post-hoc test: **p<0.01.
(§1) Confluent myometrial cells were treated with/without OT (100 nM) for 1 hour before 3 PBS washes and the addition of […] IBMX (3-isobutyl-1-methylxanthine) in PBS for 5 minutes at 37° C. This was exchanged for 0.5 μM IBMX in PBS plus either DMSO, butaprost (10 μM), AH13205 (10 μM) or PGN9856i (100 nM) for […]. Cells were lysed in Cisbio cAMP lysis buffer with 0.2% TritonX-100 and centrifuged for 15 minutes at 16,000 g. Lysates were normalized to protein concentration determined by Coomassie (Bradford) Protein Assay Kit and analysed as per manufacturers' protocol (Cisbio Gαs dynamic assay) using a PHERAstar FSX.

human FLAG-tagged EP2 = molecular target: T3, human FLAG-tagged EP2 (Homo sapiens, UniProt P43116); assay: cAMP induction in HEK 293 cells stably expressing EP2 (Gαs readout); format: cell-based; conditions: HEK 293 EP2 cells; 5 minutes of stimulation; no significant difference between ligands; FIG. 2
T3 construct: FLAG; expressed in transfected cells
T3 sequence (P43116 whole entry): as above
Description: EP2 is a dually coupled GPCR capable of activating downstream signalling pathways via Gαs (anti-labour inducing) and Gαq/11 (pro-labour inducing).
HEK 293 cells were maintained in DMEM (Dulbecco's Modified Eagle Medium) containing 10% fetal bovine serum and 100 μ/ml penicillin-streptomycin, and cultured in 75 cm flasks at 37° C. in 95% air and 5% CO2. Cells at 95% confluency were passaged using 0.25% trypsin with 0.02% EDTA in phosphate-buffered saline (PBS).
as §1

β-adrenergic receptor = assay: cAMP signalling in myometrial cells from different labouring groups, β-adrenergic agonist; format: cell-based, human; conditions: isoproterenol 10 μM; all labouring groups; FIG. 8
Description: Myometrial cells from different labouring groups were treated with IBMX (5 minutes, 0.5 mM) before 1 minute stimulation with IBMX with/without butaprost (10 μM) or isoproterenol (10 μM). cAMP concentrations were normalised to protein. Data shown as mean±SEM, L−n=4. All other groups n=5. Each treatment compared to L− using one-way ANOVA with Dunnett's multiple comparison post-hoc test: **p<0.01, ***p<0.001, ****p<0.0001.

Structure (SMILES)	intracellular Ca2+ release (maximal fluorescence intensity) (human FLAG-EP2 [1])	release of intracellular cAMP (EP2 [2])	calcium response with OT pre-treatment (EP2 [3])	PGE2 levels (human FLAG-EP2 [4])	effect of OTR activation on ligand's ability to increase intracellular cAMP (EP2 [5])	cAMP efficacy at the maximal dose of each ligand (human FLAG-tagged EP2)	agonist-induced cAMP signalling in labouring groups vs non-labouring (β-adrenergic receptor)
CCCCCC(O)c1ccc(C2CCC(=O)C2CCCCCCC(=O)O)cc1 (stereo not shown) [AH13205]	enhanced Ca2+ significantly above vehicle	able to elicit release of intracellular cAMP	significantly enhance the calcium response	efficacious activators of the pathway	significantly reduced	equally efficacious	–
CC(C)NCC(O)c1ccc(O)c(O)c1 (stereo not shown) [isoproterenol]	–	–	–	–	–	–	but not isoproterenol-induced cAMP signalling, was significantly attenuated
